Holding throughout (type): cell-based
The subject of one data set is murine cell line 3T12. Put plainly: Sublethal concentration, Tryptan blue staining, 3T12 cells. The following applies: transformed, immortalized mouse fibroblast cells, thirty minutes at 37° C., highest concentration with at least one nucleus not stained. How it is done:
(§1) Also shown in Table 1 are sublethal concentrations for some of the peptides against the murine cell lines 3T3 and 3T12. Dilutions of peptide were prepared over a range of concentrations. Equal volumes of peptide solution and 250-750 murine cells were mixed together. The cells were incubated for thirty minutes at 37° C. 50 μL of Tryptan blue stain were then added to each well. Under light microscopy, killed cells could be visualized by the fact that their nuclei were stained. The sublethal dose was the highest concentration for which at least one cell nucleus was not stained. (Blank entries in Table 1 correspond to assays that had not been completed as of the date this application is being filed. Values for those entries will be determined in future assays performed in the same manner.)
(§2) P. aeruginosa and E. coli are Gram-negative bacteria, while S. aureus is a Gram-positive bacterium. 3T3 cells are healthy Swiss mouse fibroblast cells, and 3T12 cells are transformed, immortalized mouse fibroblast cells. Thus the novel peptides (at the proper concentrations) have activity against both Gram-negative and Gram-positive bacteria, while not showing activity against mammalian cells. This combination of properties is itself rather unusual in a lytic peptide.

The subject of another data set is murine cell line 3T3. The experiment in a line: Sublethal concentration, Tryptan blue staining, 3T3 cells. The following applies: healthy Swiss mouse fibroblast cells, thirty minutes at 37° C., highest concentration with at least one nucleus not stained. The method, then:
as §1, §2

The subject of data set [1] is Staphylococcus aureus ATCC 25723. Put plainly: Minimum inhibitory concentration by broth microdilution, S. aureus. The conditions noted are these: 5×10^4 cells, incubated overnight. The method, then: (§3) Minimum inhibitory concentrations of several of the peptides were measured against E. coli ATCC 25922, Pseudomonas aeruginosa ATCC 27853, and Staphylococcus aureus ATCC 25723. Minimum inhibitory concentrations were obtained by the broth microdilution method. Peptide solutions were prepared over a range of concentrations from 2 μg/mL to 256 μg/mL. 5×10^4 cells were added to the peptide solutions in sterile wells and incubated overnight. Wells in which the organisms grew became turbid. The minimum inhibitory concentration was the lowest concentration that inhibited growth of the organism.
as §2
(In general: Broth dilution looks for growth in wells or tubes with falling amounts of substance.)

In another data set the test system is E. coli ATCC 25922. Put plainly: Minimum inhibitory concentration by broth microdilution, E. coli. The conditions noted are these: 5×10^4 cells, incubated overnight. How it is done: as §3, §2
Data set [2] deals with Pseudomonas aeruginosa ATCC 27853. The experiment in a line: Minimum inhibitory concentration by broth microdilution, P. aeruginosa. The following applies: 5×10^4 cells, incubated overnight. How it is done: as §3, §2
The next data set deals with mammalian cell. The experiment in a line: Mammalian cell permeation to an exterior fluorescent dye. The conditions noted are these: ratio to antibacterial concentration.

Where a SMILES comes first, the peptide text is derived from it. Where only a bound is given, the exact number is not on record here.

Consider 14 molecules from patent US5789542A, “Amphipathic peptides” (Board of Supervisors of Louisiana State University and …, priority 1997, dated 1998).

With `COC(=O)[C@H](C)NC(=O)[C@H](CC(C)C)NC(=O)[C@H](CCCCN)NC(=O)[C@H](CCCCN)NC(=O)[C@H](C)NC(=O)[C@H](CC(C)C)NC(=O)[C@H](CCCCN)NC(=O)[C@H](C)NC(=O)[C@H](CC(C)C)NC(=O)[C@H](CCCCN)NC(=O)[C@H](CCCCN)NC(=O)[C@H](C)NC(=O)[C@H](CC(C)C)NC(=O)[C@@H](N)CCCCN` [(KLAKKLA)2] (H-KLAKKLAKLAKKLA-OMe), the “Sublethal Concentration, 3T12” value in the data set on murine cell line 3T12 was determined as 788 µM. Further, in the data set on murine cell line 3T3, the “Sublethal Concentration, 3T3” value stood at 394 µM.
As to `CC(C)C[C@H](NC(=O)[C@H](CCCCN)NC(=O)[C@H](C)NC(=O)[C@H](CC(C)C)NC(=O)[C@H](CCCCN)NC(=O)[C@H](CCCCN)NC(=O)[C@H](C)NC(=O)[C@H](CC(C)C)NC(=O)[C@H](CCCCN)NC(=O)[C@H](C)NC(=O)[C@H](CC(C)C)NC(=O)[C@H](CCCCN)NC(=O)[C@H](CCCCN)NC(=O)[C@H](C)NC(=O)[C@H](CC(C)C)NC(=O)[C@H](CCCCN)NC(=O)[C@H](C)NC(=O)[C@H](CC(C)C)NC(=O)[C@@H](N)CCCCN)C(=O)N[C@@H](C)C(=O)N[C@@H](CCCCN)C(N)=O` [(KLAKLAK)3], the “Minimum Inhibitory Concentration, S. aureus” value in data set [1] was determined as 3.7 µM. For the same molecule, the “Minimum Inhibitory Concentration, E. coli” value in the data set with E. coli ATCC 25922 amounted to 3.7 µM. Besides, the “Minimum Inhibitory Concentration, P. aeruginosa” value in data set [2] was found to be 3.7 µM.
Consider `COC(=O)[C@H](C)NC(=O)[C@H](CC(C)C)NC(=O)[C@H](CCCCN)NC(=O)[C@H](CCCCN)NC(=O)[C@H](C)NC(=O)[C@H](CC(C)C)NC(=O)[C@H](CCCCN)NC(=O)[C@H](C)NC(=O)[C@H](CC(C)C)NC(=O)[C@H](CCCCN)NC(=O)[C@H](CCCCN)NC(=O)[C@H](C)NC(=O)[C@H](CC(C)C)NC(=O)[C@@H](N)CCCCN` [Peptide 14-mer, (KLAKKLA)2 -OCH3] (H-KLAKKLAKLAKKLA-OMe), for which, in the data set with mammalian cell, the “Concentration at which mammalian cell permeation to an exterior fluorescent dye begins, relative to concentrations that effectively inhibited bacterial growth” value is listed as “about 50 times”.
For the molecule `CC[C@H](C)[C@H](NC(=O)CN)C(=O)NCC(=O)N[C@@H](C)C(=O)N[C@H](C(=O)N[C@@H](CC(C)C)C(=O)N[C@@H](CCCCN)C(=O)N[C@H](C(=O)N[C@@H](CC(C)C)C(=O)N[C@H](C(=O)N[C@H](C(=O)NCC(=O)N[C@@H](CC(C)C)C(=O)N1CCC[C@H]1C(=O)N[C@@H](C)C(=O)N[C@@H](CC(C)C)C(=O)N[C@H](C(=O)N[C@@H](CO)C(=O)N[C@@H](Cc1c[nH]c2ccccc12)C(=O)N[C@H](C(=O)N[C@@H](CCCCN)C(=O)N[C@@H](CCCNC(=N)N)C(=O)N[C@@H](CCCCN)C(=O)N[C@@H](CCCNC(=N)N)C(=O)N[C@@H](CCC(N)=O)C(=O)N[C@@H](CCC(N)=O)C(N)=O)[C@@H](C)CC)[C@@H](C)CC)[C@@H](C)O)[C@@H](C)O)C(C)C)C(C)C` [melittin, reference compound], in data set [1], the “Minimum Inhibitory Concentration, S. aureus” value turned out to be 0.56 µM. Further, the “Minimum Inhibitory Concentration, E. coli” value with E. coli ATCC 25922 came out at 0.56 µM. Besides, the “Sublethal Concentration, 3T12” value in the data set with murine cell line 3T12 is 0.78 µM. The “Minimum Inhibitory Concentration, P. aeruginosa” value in data set [2] stood at 2.3 µM. For the same molecule, the “Sublethal Concentration, 3T3” value in the data set on murine cell line 3T3 was determined as 0.78 µM.
As for (KALKALK)3, the “Minimum Inhibitory Concentration, S. aureus” value in data set [1] stood at 7.8 µM. For the same molecule, in the data set on E. coli ATCC 25922, the “Minimum Inhibitory Concentration, E. coli” value was found to be 3.9 µM. In addition, the “Minimum Inhibitory Concentration, P. aeruginosa” value in data set [2] came to 3.9 µM.
Regarding (KLAKKLA), the “Minimum Inhibitory Concentration, S. aureus” value in data set [1] was more than 100 µM. In addition, the “Minimum Inhibitory Concentration, E. coli” value with E. coli ATCC 25922 was more than 100 µM. Besides, the “Sublethal Concentration, 3T12” value in the data set with murine cell line 3T12 was “N.L”. For the same molecule, the “Minimum Inhibitory Concentration, P. aeruginosa” value in data set [2] was more than 100 µM. In addition, the “Sublethal Concentration, 3T3” value in the data set with murine cell line 3T3 was “N.L”.
On to (KLAKKLA)3 (KLAKKLAKLAKKLAKLAKKLA), for which, in data set [1], the “Minimum Inhibitory Concentration, S. aureus” value worked out at 4.2 µM. In addition, the “Minimum Inhibitory Concentration, E. coli” value with E. coli ATCC 25922 was determined as 4.2 µM. In addition, in the data set on murine cell line 3T12, the “Sublethal Concentration, 3T12” value came out at 17 µM. For the same molecule, in data set [2], the “Minimum Inhibitory Concentration, P. aeruginosa” value came to 4.2 µM. Further, in the data set on murine cell line 3T3, the “Sublethal Concentration, 3T3” value turned out to be 9 µM.
“(KLAKKLA)4 (KLAKKLAKLAKKLAKLAKKLAKLAKKLA)”: in data set [1], the “Minimum Inhibitory Concentration, S. aureus” value was 9.0 µM. For the same molecule, the “Minimum Inhibitory Concentration, E. coli” value in the data set with E. coli ATCC 25922 stood at 9.0 µM. Moreover, the “Sublethal Concentration, 3T12” value with murine cell line 3T12 is 52 µM. In addition, the “Minimum Inhibitory Concentration, P. aeruginosa” value in data set [2] worked out at 9.0 µM. Moreover, the “Sublethal Concentration, 3T3” value with murine cell line 3T3 worked out at 13 µM.
Turning to (KLAKLAK), in data set [1], the “Minimum Inhibitory Concentration, S. aureus” value is more than 95 µM. Moreover, the “Minimum Inhibitory Concentration, E. coli” value in the data set on E. coli ATCC 25922 was more than 95 µM. In addition, in data set [2], the “Minimum Inhibitory Concentration, P. aeruginosa” value was more than 95 µM.
Take (KLAKLAK)2 (KLAKLAKKLAKLAK): the “Minimum Inhibitory Concentration, S. aureus” value in data set [1] stood at 5.8 µM. Also, in the data set on E. coli ATCC 25922, the “Minimum Inhibitory Concentration, E. coli” value was 5.8 µM. For the same molecule, the “Minimum Inhibitory Concentration, P. aeruginosa” value in data set [2] came out at 5.8 µM.
As to “(KLAKLAK)4 (KLAKLAKKLAKLAKKLAKLAKKLAKLAK)”, the “Minimum Inhibitory Concentration, S. aureus” value in data set [1] came to 9.4 µM. The “Minimum Inhibitory Concentration, E. coli” value with E. coli ATCC 25922 was 9.4 µM. For the same molecule, the “Minimum Inhibitory Concentration, P. aeruginosa” value in data set [2] came to 9.4 µM.
For the molecule (KLGKKLG)3 (KLGKKLGKLGKKLGKLGKKLG), the “Minimum Inhibitory Concentration, S. aureus” value in data set [1] worked out at 3.4 µM. Further, the “Minimum Inhibitory Concentration, E. coli” value in the data set with E. coli ATCC 25922 was 3.4 µM. Moreover, the “Sublethal Concentration, 3T12” value with murine cell line 3T12 is 565 µM. Also, the “Minimum Inhibitory Concentration, P. aeruginosa” value in data set [2] is 3.4 µM. For the same molecule, in the data set on murine cell line 3T3, the “Sublethal Concentration, 3T3” value came to 565 µM.
In the case of “cecropin B (KWKVFKKIEKMGRNIRNGIVKAGPAIAVLGEAKAL; UniProt P01508 27-61, looked up) [naturally occurring lytic peptide used for comparison, reference compound]”, the “Minimum Inhibitory Concentration, S. aureus” value in data set [1] was determined as 1.7 µM. In addition, in the data set with E. coli ATCC 25922, the “Minimum Inhibitory Concentration, E. coli” value is 0.20 µM. Further, the “Minimum Inhibitory Concentration, P. aeruginosa” value in data set [2] is 0.20 µM.
As to “magainin 2 (KLGKKLGKLGKKLGKLGKKLG) [naturally occurring lytic peptide used for comparison, reference compound]”, the “Minimum Inhibitory Concentration, S. aureus” value in data set [1] came out at 1.3 µM. Besides, the “Minimum Inhibitory Concentration, E. coli” value in the data set on E. coli ATCC 25922 is 1.3 µM. In addition, the “Minimum Inhibitory Concentration, P. aeruginosa” value in data set [2] stood at 0.65 µM.
